biological target: T1, human orexin type 2 receptor (hOX2R) (Homo sapiens, UniProt O43614); assay: cell-based
T1 sequence (O43614 1-444): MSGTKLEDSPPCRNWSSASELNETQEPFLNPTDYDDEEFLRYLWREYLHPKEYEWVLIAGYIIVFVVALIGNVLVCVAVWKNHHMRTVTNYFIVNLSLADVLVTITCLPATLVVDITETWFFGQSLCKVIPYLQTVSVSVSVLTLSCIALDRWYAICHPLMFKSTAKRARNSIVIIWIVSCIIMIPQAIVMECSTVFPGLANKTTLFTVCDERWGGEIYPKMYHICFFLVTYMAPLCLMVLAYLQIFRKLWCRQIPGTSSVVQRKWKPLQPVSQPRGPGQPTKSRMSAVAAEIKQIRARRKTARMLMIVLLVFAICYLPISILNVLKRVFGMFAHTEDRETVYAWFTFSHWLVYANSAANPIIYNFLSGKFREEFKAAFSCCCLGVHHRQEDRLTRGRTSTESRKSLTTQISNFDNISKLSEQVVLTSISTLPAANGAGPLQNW
Procedure: Measurement of orexin type 2 receptor agonist activity. […] After removal of the medium, 50 μl of assay buffer 1 (0.1% bovine serum albumin (Sigma Aldrich), 20 mM HEPES (Molecular Dimensions), 250 mM probenecid (Sigma Aldrich), 1× Calcium 5 dye (Molecular Devices) in Hank's balanced salt solution (Invitrogen)) was added, and the cells were incubated for 60 min under the conditions of 37° C., 5% CO2. A test compound was dissolved in dimethyl sulfoxide (Sigma Aldrich) to 10 mM, and then diluted with assay buffer 2 (20 mM HEPES, Hank's balanced salt solution, 0.1% bovine serum albumin). For the reaction, a test compound solution (10 μl) was added using Fluorescent Imaging Plate Reader TETRA (FLIPR TETRA: manufactured by Molecular Devices), a fluorescence value (excitation wavelength 488 nm, measurement wavelength 570 nm) of each well was measured every one second for 2 min, and the agonist activity was determined using the area of the fluorescence value as an indicator of intracellular Ca^2+ concentration. The agonist activity of the test compound was calculated assuming that the fluorescence value of the well added with only the dilution buffer was 0% and the fluorescence value of the well added with 10 nM human orexin A (Tocris) buffer was 100%.
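Also: agonist activity in CHO cells stably expressing hOX2R, intracellular Ca2+ via Calcium 5 dye fluorescence area over 2 min, buffer-only as 0% and 10 nM orexin A as 100%.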

| SMILES | EC50 |
| --- | --- |
| C[C@@H](C#N)C(=O)N1CC2(CC2)[C@H](NS(=O)(=O)C(F)F)[C@@H]1Cc1cccc(-c2ccccc2)c1F [compound 41, N-((6S,7S)-5-((S)-2-cyanopropanoyl)-6-((2-fluoro-[1,1′-biphenyl]-3-yl)methyl)-5-azaspiro[2.4]heptan-7-yl)-1,1-difluoromethanesulfonamide] | 1 to 10 nM |
| O=C([C@H]1CCCO1)N1CC2(CC2)[C@H](NS(=O)(=O)CF)[C@@H]1Cc1cccc(-c2cc(F)cc(F)c2)c1F [compound 42, 1-fluoro-N-((6S,7S)-5-((R)-tetrahydrofuran-2-carbonyl)-6-((2,3′,5′-trifluoro-[1,1′-biphenyl]-3-yl)methyl)-5-azaspiro[2.4]heptan-7-yl)methanesulfonamide] | 1 to 10 nM |
| N#C[C@@]1(C(=O)N2CC3(CC3)[C@H](NS(=O)(=O)CF)[C@@H]2Cc2cccc(-c3cccc(F)c3)c2F)CCO1 [compound 45, N-((6S,7S)-5-((R)-2-cyanooxetane-2-carbonyl)-6-((2,3′-difluoro-[1,1′-biphenyl]-3-yl)methyl)-5-azaspiro[2.4]heptan-7-yl)-1-fluoromethanesulfonamide] | 1 to 10 nM |
| N#C[C@]1(C(=O)N2CC3(CC3)[C@H](NS(=O)(=O)CF)[C@@H]2Cc2cccc(-c3cccc(F)c3)c2F)CCO1 [compound 46, N-((6S,7S)-5-((S)-2-cyanooxetane-2-carbonyl)-6-((2,3′-difluoro-[1,1′-biphenyl]-3-yl)methyl)-5-azaspiro[2.4]heptan-7-yl)-1-fluoromethanesulfonamide] | 1 to 10 nM |
| N#C[C@]1(C(=O)N2CC3(CC3)[C@H](NS(=O)(=O)CF)[C@@H]2Cc2cccc(-c3cc(F)cc(F)c3)c2F)CCO1 [compound 47, N-((6S,7S)-5-((S)-2-cyanooxetane-2-carbonyl)-6-((2,3′,5′-trifluoro-[1,1′-biphenyl]-3-yl)methyl)-5-azaspiro[2.4]heptan-7-yl)-1-fluoromethanesulfonamide] | 1 to 10 nM |
| C[C@H](C#N)C(=O)N1CC2(CC2)[C@H](NS(=O)(=O)C(F)F)[C@@H]1Cc1cccc(-c2cc(F)cc(F)c2)c1F [compound 49, N-((6S,7S)-5-((R)-2-cyanopropanoyl)-6-((2,3′,5′-trifluoro-[1,1′-biphenyl]-3-yl)methyl)-5-azaspiro[2.4]heptan-7-yl)-1,1-difluoromethanesulfonamide] | 1 to 10 nM |
| O=C([C@H]1CCCO1)N1CC2(CC2)[C@H](NS(=O)(=O)C(F)F)[C@@H]1Cc1cccc(-c2cc(F)cc(F)c2)c1F [compound 50, 1,1-difluoro-N-((6S,7S)-5-((R)-tetrahydrofuran-2-carbonyl)-6-((2,3′,5′-trifluoro-[1,1′-biphenyl]-3-yl)methyl)-5-azaspiro[2.4]heptan-7-yl)methanesulfonamide] | 1 to 10 nM |
| COC1CN(C(=O)N2CC3(CC3)[C@H](NS(=O)(=O)C(F)F)[C@@H]2Cc2cccc(-c3cc(F)cc(F)c3)c2F)C1 [compound 52, 1,1-difluoro-N-((6S,7S)-5-(3-methoxyazetidine-1-carbonyl)-6-((2,3′,5′-trifluoro-[1,1′-biphenyl]-3-yl)methyl)-5-azaspiro[2.4]heptan-7-yl)methanesulfonamide] | 1 to 10 nM |
| N#C[C@]1(C(=O)N2CC3(CC3)[C@H](NS(=O)(=O)C(F)F)[C@@H]2Cc2cccc(-c3cccc(F)c3)c2F)CCO1 [compound 53, N-((6S,7S)-5-((S)-2-cyanooxetane-2-carbonyl)-6-((2,3′-difluoro-[1,1′-biphenyl]-3-yl)methyl)-5-azaspiro[2.4]heptan-7-yl)-1,1-difluoromethanesulfonamide] | 1 to 10 nM |
| C[C@@H](F)S(=O)(=O)N[C@@H]1[C@H](Cc2cc(F)cc(-c3ccccc3)c2F)N(C(=O)[C@H]2CCO2)CC12CC2 [compound 55, (S)-N-((6S,7S)-6-((2,5-difluoro-[1,1′-biphenyl]-3-yl)methyl)-5-((R)-oxetane-2-carbonyl)-5-azaspiro[2.4]heptan-7-yl)-1-fluoroethane-1-sulfonamide] | 1 to 10 nM |
| C[C@@H](F)S(=O)(=O)N[C@@H]1[C@H](Cc2cc(F)cc(-c3cc(F)cc(F)c3)c2F)N(C(=O)[C@H]2CCO2)CC12CC2 [compound 57, (S)-1-fluoro-N-((6S,7S)-5-((R)-oxetane-2-carbonyl)-6-((2,3′,5,5′-tetrafluoro-[1,1′-biphenyl]-3-yl)methyl)-5-azaspiro[2.4]heptan-7-yl)ethane-1-sulfonamide] | 1 to 10 nM |
| C[C@H](F)S(=O)(=O)N[C@@H]1[C@H](Cc2cc(F)cc(-c3cc(F)cc(F)c3)c2F)N(C(=O)[C@H]2CCO2)CC12CC2 [compound 58, (R)-1-fluoro-N-((6S,7S)-5-((R)-oxetane-2-carbonyl)-6-((2,3′,5,5′-tetrafluoro-[1,1′-biphenyl]-3-yl)methyl)-5-azaspiro[2.4]heptan-7-yl)ethane-1-sulfonamide] | 1 to 10 nM |
| COC1CN(C(=O)N2CC3(CC3)[C@H](NS(=O)(=O)CF)[C@@H]2Cc2cc(F)cc(-c3ccccc3)c2F)C1 [compound 59, N-((6S,7S)-6-((2,5-difluoro-[1,1′-biphenyl]-3-yl)methyl)-5-(3-methoxyazetidine-1-carbonyl)-5-azaspiro[2.4]heptan-7-yl)-1-fluoromethanesulfonamide] | 1 to 10 nM |
| C[C@@H](NC(=O)N1CC2(CC2)[C@H](NS(=O)(=O)C(F)F)[C@@H]1Cc1cccc(-c2cc(F)cc(F)c2)c1F)C(F)F [compound 60, (6S,7S)-7-((difluoromethyl)sulfonamido)-N-((R)-1,1-difluoropropan-2-yl)-6-((2,3′,5′-trifluoro-[1,1′-biphenyl]-3-yl)methyl)-5-azaspiro[2.4]heptane-5-carboxamide] | 1 to 10 nM |

The remaining lines, values ahead:

| EC50 | SMILES |
| --- | --- |
| 0.0631 to 1 nM | C[C@@](O)(CF)C(=O)N1CC2(CC2)[C@H](NS(=O)(=O)CF)[C@@H]1Cc1cccc(-c2ccccc2)c1F [compound 35, 1-fluoro-N-((6S,7S)-5-((S)-3-fluoro-2-hydroxy-2-methylpropanoyl)-6-((2-fluoro-[1,1′-biphenyl]-3-yl)methyl)-5-azaspiro[2.4]heptan-7-yl)methanesulfonamide] |
| 0.0631 to 1 nM | O=C([C@H]1CCO1)N1CC2(CC2)[C@H](NS(=O)(=O)C2(F)CC2)[C@@H]1Cc1cccc(-c2cc(F)cc(F)c2)c1F [compound 36, 1-fluoro-N-((6S,7S)-5-((R)-oxetane-2-carbonyl)-6-((2,3′,5′-trifluoro-[1,1′-biphenyl]-3-yl)methyl)-5-azaspiro[2.4]heptan-7-yl)cyclopropane-1-sulfonamide] |
| 1 to 10 nM | CC(C)(F)CNC(=O)N1CC2(CC2)[C@H](NS(=O)(=O)CF)[C@@H]1Cc1cccc(-c2cc(F)cc(F)c2)c1F [compound 37, (6S,7S)-N-(2-fluoro-2-methylpropyl)-7-((fluoromethyl)sulfonamido)-6-((2,3′,5′-trifluoro-[1,1′-biphenyl]-3-yl)methyl)-5-azaspiro[2.4]heptane-5-carboxamide] |
| 1 to 10 nM | CC(F)(F)CNC(=O)N1CC2(CC2)[C@H](NS(=O)(=O)CF)[C@@H]1Cc1cccc(-c2cc(F)cc(F)c2)c1F [compound 38, (6S,7S)-N-(2,2-difluoropropyl)-7-((fluoromethyl)sulfonamido)-6-((2,3′,5′-trifluoro-[1,1′-biphenyl]-3-yl)methyl)-5-azaspiro[2.4]heptane-5-carboxamide] |
| 1 to 10 nM | CC(F)(F)CNC(=O)N1CC2(CC2)[C@H](NS(=O)(=O)C(F)F)[C@@H]1Cc1cccc(-c2cc(F)cc(F)c2)c1F [compound 39, (6S,7S)-7-((difluoromethyl)sulfonamido)-N-(2,2-difluoropropyl)-6-((2,3′,5′-trifluoro-[1,1′-biphenyl]-3-yl)methyl)-5-azaspiro[2.4]heptane-5-carboxamide] |
| 1 to 10 nM | C[C@H](C#N)C(=O)N1CC2(CC2)[C@H](NS(=O)(=O)C(F)F)[C@@H]1Cc1cccc(-c2ccccc2)c1F [compound 40, N-((6S,7S)-5-((R)-2-cyanopropanoyl)-6-((2-fluoro-[1,1′-biphenyl]-3-yl)methyl)-5-azaspiro[2.4]heptan-7-yl)-1,1-difluoromethanesulfonamide] |
| 0.0631 to 1 nM | N#C[C@]1(C(=O)N2CC3(CC3)[C@H](NS(=O)(=O)C(F)F)[C@@H]2Cc2cccc(-c3cc(F)cc(F)c3)c2F)CCO1 [compound 48, N-((6S,7S)-5-((S)-2-cyanooxetane-2-carbonyl)-6-((2,3′,5′-trifluoro-[1,1′-biphenyl]-3-yl)methyl)-5-azaspiro[2.4]heptan-7-yl)-1,1-difluoromethanesulfonamide] |
| 0.0631 to 1 nM | CC(C)(F)CNC(=O)N1CC2(CC2)[C@H](NS(=O)(=O)CF)[C@@H]1Cc1cc(F)cc(-c2ccccc2)c1F [compound 51, (6S,7S)-6-((2,5-difluoro-[1,1′-biphenyl]-3-yl)methyl)-N-(2-fluoro-2-methylpropyl)-7-((fluoromethyl)sulfonamido)-5-azaspiro[2.4]heptane-5-carboxamide] |
| 0.0631 to 1 nM | N#C[C@]1(C(=O)N2CC3(CC3)[C@H](NS(=O)(=O)CF)[C@@H]2Cc2cccc(-c3ccccc3)c2F)C[C@H](F)C1 [compound 54, N-((6S,7S)-5-((1r,3S)-1-cyano-3-fluorocyclobutane-1-carbonyl)-6-((2-fluoro-[1,1′-biphenyl]-3-yl)methyl)-5-azaspiro[2.4]heptan-7-yl)-1-fluoromethanesulfonamide] |
| 0.0631 to 1 nM | C[C@H](F)S(=O)(=O)N[C@@H]1[C@H](Cc2cc(F)cc(-c3ccccc3)c2F)N(C(=O)[C@H]2CCO2)CC12CC2 [compound 56, (R)-N-((6S,7S)-6-((2,5-difluoro-[1,1′-biphenyl]-3-yl)methyl)-5-((R)-oxetane-2-carbonyl)-5-azaspiro[2.4]heptan-7-yl)-1-fluoroethane-1-sulfonamide] |

Source: US20250100968A1, “BICYCLIC-HETEROCYCLE DERIVATIVES AND RELATED USES” (CENTESSA PHARMACEUTICALS (UK) LIMITED, priority 2022, published 2025)
